# In patent publication US20210246115A1 (Bioimics AB, priority 2017, published 2021):
# Counter-ions that a name gives are not always drawn. Like-named read-outs stand apart in the source and are kept apart here.
# Columns and labels:
# [1] = system: E. coli RNase P RNA, M1 RNA; assay: Initial screening for inhibition of RNase P activity (normalised cleavage of pATSerUG at maximum compound concentration); assay type: biochemical; conditions: normalised cleavage (cleavage with compound / without compound) at maximum compound concentration
# [2] = system: E. faecium ATCC 700221; assay: MIC, E. faecium ATCC 700221; assay type: cell-based; conditions: Enterococcus faecium, ATCC700221; Table XIV A. Gram-positive bacteria; read-out: E. faecium ATCC 700221 MIC
# [3] = system: S. pneumoniae ATCC 49619; assay: MIC, S. pneumoniae ATCC 49619; assay type: cell-based; conditions: Streptococcus pneumoniae, ATCC49619; Table XIV A. Gram-positive bacteria
# [4] = system: E. coli RNase P RNA, M1 RNA; assay: Inhibition of bacterial RNase P activity, IC50 determination (cleavage of pATSerUG by M1 RNA); assay type: biochemical; conditions: NI: No inhibition
# [5] = system: E. coli JW5503 (efflux defective); assay: MIC, E. coli JW5503 (efflux defective); assay type: cell-based; conditions: Escherichia coli, read-out: E. coli JW5503 (efflux defective) MIC
# [6] = system: Enterococcus faecalis (ATCC29212); assay: MIC, broth microdilution (CLSI), Enterococcus faecalis; assay type: cell-based; conditions: ATCC29212, Table XIV A. Gram-positive bacteria, read-out: E. faecalis ATCC 29212 MIC
# [7] = system: S. aureus USA300 MRSA BAA-1717; assay: MIC, S. aureus USA300 MRSA BAA-1717; assay type: cell-based; conditions: Staphylococcus aureus; Table XIV A. Gram-positive bacteria; read-out: S. aureus USA300 MRSA BAA-1717 MIC
# [8] = system: N. gonorrhoeae ATCC 700825; assay: MIC, N. gonorrhoeae ATCC 700825; assay type: cell-based; conditions: Neisseria gonorrhoeae, ATCC700825; Table XIV B. Gram-negative bacteria
# [9] = system: K. pneumoniae ATCC 43816; assay: MIC, K. pneumoniae ATCC 43816; assay type: cell-based; conditions: Klebsiella pneumoniae, ATCC43816; Table XIV B. Gram-negative bacteria
# [10] = system: A. baumannii ATCC 17978; assay: MIC, A. baumannii ATCC 17978; assay type: cell-based; conditions: Acinetobacter baumannii, ATCC17978; Table XIV B. Gram-negative bacteria
# [11] = system: Staphylococcus aureus subsp. aureus (ATCC29213); assay: MIC, broth microdilution (CLSI), Staphylococcus aureus ATCC29213; assay type: cell-based; conditions: Staphylococcus aureus, read-out: S. aureus ATCC 29213 MIC
# [12] = system: Staphylococcus aureus (ATCC25923); assay: MIC, broth microdilution (CLSI), Staphylococcus aureus ATCC25923; conditions: Staphylococcus aureus, ATCC25923, read-out: S. aureus ATCC 25923 MIC
# [13] = system: Escherichia coli (ATCC25922); assay: MIC, broth microdilution (CLSI), Escherichia coli; conditions: Escherichia coli
# [14] = system: P. aeruginosa NTUH974 (MDR); assay: MIC, P. aeruginosa NTUH974 (MDR); assay type: cell-based; conditions: Pseudomonas aeruginosa; Table XIV B. Gram-negative bacteria; read-out: P. aeruginosa NTUH974 (MDR) MIC
# [15] = system: H. influenzae ATCC 49247; assay: MIC, H. influenzae ATCC 49247; assay type: cell-based; conditions: Haemophilus influenzae, ATCC49247; Table XIV B. Gram-negative bacteria
# [16] = system: M. fortuitum ATCC 110; assay: MIC, M. fortuitum ATCC 110; assay type: cell-based; conditions: Mycolicibacterium fortuitum, ATCC110; Table XIV A. Gram-positive bacteria
# [17] = system: M. phlei ATCC 11758; assay: MIC, M. phlei ATCC 11758; assay type: cell-based; conditions: Mycolicibacterium phlei, ATCC11758; Table XIV A. Gram-positive bacteria
# [18] = system: S. aureus MRSA ATCC 33591; assay: MIC, S. aureus MRSA ATCC 33591; assay type: cell-based; conditions: Staphylococcus aureus; Table XIV A. Gram-positive bacteria; read-out: S. aureus MRSA ATCC 33591 MIC
# [19] = system: Pseudomonas aeruginosa (ATCC27853); assay: MIC, broth microdilution (CLSI), Pseudomonas aeruginosa; assay type: cell-based; conditions: ATCC27853, Table XIV B. Gram-negative bacteria, read-out: P. aeruginosa ATCC 27853 MIC
# [20] = ATCC29213, Table XIV A. Gram-positive bacteria
# [21] = ATCC25922, read-out: E. coli ATCC 25922 MIC, Table XIII
# [22] = ATCC25922, read-out: E. coli ATCC 25922 MIC, Table XIV B. Gram-negative bacteria
compound,measurement,setting,value
"Cc1ccc(CN(CCc2c[nH]c3ccccc23)C(=O)CNCc2ccc(F)cc2)cc1.Cl [Compound 15, N-(2-(1H-indol-3-yl)ethyl)-2-((4-fluorobenzyl)amino)-N-(4-methylbenzyl)acetamide hydrochloride salt]",Initial screening of RNase P Inhibition,[1],1.10
"Cc1cccc(-c2ccc3c(c2)c(CCN[C@H]2CC[C@H](N)CC2)cn3CC2CCCCC2)c1 [Compound 225, (1R,4R)-N1-(2-(1-(cyclohexylmethyl)-5-(m-tolyl)-1H-indol-3-yl)ethyl)cyclohexane-1,4-diamine hydrochloride salt]",MIC,[2],1 µg/mL
same,MIC,[3],8 µg/mL
same,IC50,[4],11.8 µM
same,MIC,[5],2 µg/mL
same,MIC,[6],2 µg/mL
same,MIC,[7],2 µg/mL
same,MIC,[8],2 µg/mL
same,MIC,[9],2 µg/mL
same,MIC,[10],2 µg/mL
same,MIC,"[11]; ATCC29213, Table XIII",2 µg/mL
same,MIC,[11]; [20],2 µg/mL
same,MIC,[12],2 µg/mL
same,MIC,[13]; [21],2 µg/mL
same,MIC,[13]; [22],2 µg/mL
same,MIC,[14],16 µg/mL
same,MIC,[15],4 µg/mL
same,MIC,[16],1 µg/mL
same,MIC,[17],1 µg/mL
same,MIC,[18],2 µg/mL
same,MIC,[19],8 µg/mL
"Cl.Fc1ccc(CN(CCc2c[nH]c3ccccc23)Cc2ncc[nH]2)cc1 [Compound 10, N-((1H-imidazol-2-yl)methyl)-N-(4-fluorobenzyl)-2-(1H-indol-3-yl)ethan-1-amine hydrochloride salt]",Initial screening of RNase P Inhibition,[1],0.95
"Cc1cccc(C(CCNC2CCNCC2)c2cn(CC3CCCCC3)c3ccccc23)c1.Cl (centres unmarked) [Compound 122, N-(3-(1-(cyclohexylmethyl)-1H-indol-3-yl)-3-(m-tolyl)propyl)piperidin-4-amine hydrochloride salt]",MIC,[2],2 µg/mL
same,MIC,[3],8 µg/mL
same,IC50,[4],4 µM
same,MIC,[5],4 µg/mL
same,MIC,[6],4 µg/mL
same,MIC,[8],2 µg/mL
same,MIC,[9],4 µg/mL
same,MIC,[10],8 µg/mL
same,MIC,"[11]; ATCC29213, Table XIII",8 µg/mL
same,MIC,[11]; [20],4 µg/mL
same,MIC,[12],2 µg/mL
same,MIC,[13]; [21],4 µg/mL
same,MIC,[13]; [22],4 µg/mL
same,MIC,[14],16 µg/mL
same,MIC,[15],4 µg/mL
same,MIC,[16],2 µg/mL
same,MIC,[17],2 µg/mL
same,MIC,[18],4 µg/mL
same,MIC,[19],16 µg/mL
"Cc1cccc(C(CC(=O)NCCC2CCNCC2)c2cn(Cc3ccccc3)c3cccnc23)c1.Cl (centres unmarked) [Compound 85, 3-(1-benzyl-1H-pyrrolo[3,2-b]pyridin-3-yl)-N-(2-(piperidin-4-yl)ethyl)-3-(m-tolyl)propanamide hydrochloride salt]",IC50,[4],806 µM
same,Initial screening of RNase P Inhibition,[1],0.20
"Cl.c1c[nH]c(CNCCc2c[nH]c3ccccc23)c1 [Compound 14, N-((1H-pyrrol-2-yl)methyl)-2-(1H-indol-3-yl)ethan-1-amine hydrochloride salt]",Initial screening of RNase P Inhibition,[1],0.78
"Brc1cccc(CNCCc2c[nH]c3ccccc23)n1.Cl [Compound 12, N-((6-bromopyridin-2-yl)methyl)-2-(1H-indol-3-yl)ethan-1-amine hydrochloride salt]",Initial screening of RNase P Inhibition,[1],0.84
"Cc1cccc(C(CCN[C@H]2CC[C@H](N)CC2)c2cn(CC3CCCCC3)c3ccccc23)c1 (stereo partly drawn) [Compound 199, (1R,4R)-N1-(3-(1-(cyclohexylmethyl)-1H-indol-3-yl)-3-(m-tolyl)propyl) cyclohexane-1,4-diamine hydrochloride]",MIC,[2],4 µg/mL
same,MIC,[3],16 µg/mL
same,IC50,[4],9.8 µM
same,MIC,[5],4 µg/mL
same,MIC,[6],8 µg/mL
same,MIC,[7],4 µg/mL
same,MIC,[8],4 µg/mL
same,MIC,[9],16 µg/mL
same,MIC,[10],8 µg/mL
same,MIC,"[11]; ATCC29213, Table XIII",4 µg/mL
same,MIC,[11]; [20],8 µg/mL
same,MIC,[12],2 µg/mL
same,MIC,[13]; [21],4 µg/mL
same,MIC,[13]; [22],32 µg/mL
same,MIC,[14],64 µg/mL
same,MIC,[15],8 µg/mL
same,MIC,[16],2 µg/mL
same,MIC,[17],2 µg/mL
same,MIC,[18],8 µg/mL
same,MIC,[19],32 µg/mL
"CCn1cc(C(CC(=O)NCCC2CCNCC2)c2cccc(C)c2)c2ccccc21.Cl (centres unmarked) [Compound 84, 3-(1-ethyl-1H-indol-3-yl)-N-(2-(piperidin-4-yl)ethyl)-3-(m-tolyl)propanamide hydrochloride salt]",IC50,[4],823 µM
same,Initial screening of RNase P Inhibition,[1],0.32
"c1ccc2c(CCNCC3CCNCC3)c[nH]c2c1 [Compound 18, 2-(1H-indol-3-yl)-N-(piperidin-4-ylmethyl)ethan-1-amine hydrochloride salt]",Initial screening of RNase P Inhibition,[1],1.05
"Cl.c1ccc2c(CCNCc3c[nH]cn3)c[nH]c2c1 [Compound 9, N-((1H-imidazol-4-yl)methyl)-2-(1H-indol-3-yl)ethan-1-amine hydrochloride salt]",Initial screening of RNase P Inhibition,[1],0.91
"Cc1cccc(C(CC(=O)NCCC2CCNCC2)c2cn(Cc3ccccc3)c3ccccc23)c1.Cl (centres unmarked) [Compound 86, 3-(1-benzyl-1H-indol-3-yl)-N-(2-(piperidin-4-yl)ethyl)-3-(m-tolyl)propanamide hydrochloride salt]",IC50,[4]; hydrochloride salt,242 µM
same,Initial screening of RNase P Inhibition,[1]; hydrochloride salt,0.78
"Cc1cccc(C(CC(=O)NCCC2CCNCC2)c2cn(Cc3ccccc3)c3ccccc23)c1.Cl (centres unmarked) [Compound 87, 3-(1-benzyl-1H-indol-3-yl)-N-(2-(piperidin-4-yl)ethyl)-3-(m-tolyl) propanamide hydrochloride salt]",IC50,[4]; hydrochloride salt,154 µM
same,Initial screening of RNase P Inhibition,[1]; hydrochloride salt,0.30
"Brc1cccc(CNCCc2c[nH]c3ccccc23)c1.Cl [Compound 13, N-(3-bromobenzyl)-2-(1H-indol-3-yl)ethan-1-amine hydrochloride salt]",Initial screening of RNase P Inhibition,[1],0.97
"Cl.c1ccc2c(CCNCc3cncs3)c[nH]c2c1 [Compound 16, 2-(1H-indol-3-yl)-N-(thiazol-5-ylmethyl) ethan-1-amine hydrochloride salt]",Initial screening of RNase P Inhibition,[1],0.88
"N[C@H]1CC[C@H](NCCc2cn(CC3CCCCC3)c3ccc(-c4cccc(OC(F)(F)F)c4)cc23)CC1 [Compound 274, hydrochloride salt]",MIC,[2],2 µg/mL
same,MIC,[3],8 µg/mL
same,IC50,[4],6.53 µM
same,MIC,[5],4 µg/mL
same,MIC,[6],2 µg/mL
same,MIC,[8],2 µg/mL
same,MIC,[9],8 µg/mL
same,MIC,[10],8 µg/mL
same,MIC,"[11]; ATCC29213, Table XIII",4 µg/mL
same,MIC,[11]; [20],2 µg/mL
same,MIC,[12],2 µg/mL
same,MIC,[13]; [21],2 µg/mL
same,MIC,[13]; [22],4 µg/mL
same,MIC,[14],16 µg/mL
same,MIC,[15],4 µg/mL
same,MIC,[18],2 µg/mL
same,MIC,[19],8 µg/mL
"Cl.c1cc(CNCCc2c[nH]c3ccccc23)nc(N2CCCCC2)c1 [Compound 17, 2-(1H-indol-3-yl)-N-((6-(piperidin-1-yl)pyridin-2-yl)methyl)ethan-1-amine hydrochloride salt]",Initial screening of RNase P Inhibition,[1],0.94
"Cl.Clc1ccc(CNCCc2c[nH]c3ccccc23)c(Cl)n1 [Compound 8, N-((2,6-dichloropyridin-3-yl)methyl)-2-(1H-indol-3-yl)ethan-1-amine hydrochloride salt]",Initial screening of RNase P Inhibition,[1],0.96
"COc1ccc(CNCCc2c[nH]c3ccccc23)cc1.Cl [Compound 11, 2-(1H-indol-3-yl)-N-(4-methoxybenzyl)ethan-1-amine hydrochloride salt]",Initial screening of RNase P Inhibition,[1],0.72
